Reference: patent publication US8871767B2, “2-arylimidazo[1,2-B]pyridazine, 2-phenylimidazo[1,2-A]pyridine, and 2-phenylimidazo[1,2-A]pyrazine derivatives” (Hengrui (USA) Ltd., priority 2010, dated 2014)
Where two headings read alike, the source gives them in different places.

Tests used:
[1] = test system: Hedgehog pathway activation on 10T1/2/Smo#3 cells (C3H10T1/2 cells transfected with human Smoothened receptor); assay: Hedgehog pathway activation on 10T1/2/Smo#3 cells measured by ALP activity; type: cell-based; conditions: Mus musculus, C3H 10T1/2, 10T1/2/Smo#3 cells
How it was run: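 Inhibition of alkaline phosphatase induction, read fluorometrically from 4-methylumbelliferyl phosphate conversion, gave IC50 values; CellTiter-Blue tracked viability in parallel. Cells were the human Smo-transfected 10T1/2/Smo#3 pool, stimulated by 10-20% hShh conditioned medium or the Smo agonist SAG (500 nM).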

[2] = test system: Hedgehog pathway activation (GLi-luciferase reporter) in Shh Light II reporter cells; assay: Hedgehog pathway activation on Shh Light II reporter cells measured by luciferase activity; type: cell-based; conditions: Mus musculus, Shh Light II
How it was run: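 Shh Light II reporter cells carrying a hedgehog-responsive GLi-luciferase reporter were stimulated either with 500 nM SAG, a direct Smoothened agonist, or with conditioned media containing human Sonic Hedgehog (hShh). Test compounds were evaluated for blocking this pathway activation, quantified by luciferase activity. Cell viability was monitored in parallel with the Celltiter-Blue® assay.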

[3] = hShh activation, ALP activity, read-out: 10T1/2/Smo#3 ALP activity (hShh Activation)
[4] = measured by ALP activity, read-out: ALP (IC50, inhibition of Hedgehog pathway activation)
[5] = SAG activation (500 nM SAG), read-out: Shh Light II luciferase activity (SAG activation)
[6] = hShh activation, read-out: Shh (IC50, inhibition of Hedgehog pathway activation)
[7] = hShh activation, read-out: Shh Light II luciferase activity (hShh activation)

SMILES	IC50 [1, 3]	IC50 [1, 4]	IC50 [2, 5]	IC50 [2, 6]	IC50 [2, 7]
Cc1ccc(-c2cn3nc(-c4ccc(-c5ccc(Cl)nc5)nc4)ccc3n2)cc1NC(=O)C(C)(C)C [Example 401, N-(5-(6-(6′-chloro-2,3′-bipyridin-5-yl)imidazo[1,2-b]pyridazin-2-yl)-2-methylphenyl)pivalamide]		0.234 µM		0.4 µM	
CCOC(=O)COc1ccc(-c2ccc3nc(-c4ccc(C)c(NC(=O)C(C)(C)C)c4)cn3n2)c(C(F)(F)F)c1 [Example 411, ethyl 2-(4-(2-(4-methyl-3-pivalamidophenyl)imidazo[1,2-b]pyridazin-6-yl)-3-(trifluoromethyl)phenoxy)acetate]		0.679 µM		0.251 µM	
CCOC(=O)CCCCCOc1ccc(-c2ccc3nc(-c4ccc(C)c(NC(=O)C(C)(C)C)c4)cn3n2)c(C(F)(F)F)c1 [Example 412, ethyl 6-(4-(2-(4-methyl-3-pivalamidophenyl)imidazo[1,2-b]pyridazin-6-yl)-3-(trifluoromethyl)phenoxy)hexanoate]	0.3 to 3 µM	0.665 µM	0.3 to 3 µM	0.225 µM	< 0.3 µM
CCOC(=O)CCCCCCOc1ccc(-c2ccc3nc(-c4ccc(C)c(NC(=O)C(C)(C)C)c4)cn3n2)c(C(F)(F)F)c1 [Example 413, ethyl 7-(4-(2-(4-methyl-3-pivalamidophenyl)imidazo[1,2-b]pyridazin-6-yl)-3-(trifluoromethyl)phenoxy)heptanoate]		0.548 µM		0.318 µM	
CCOC(=O)CCCCCOc1cccc(-c2ccc3nc(-c4ccc(C)c(NC(=O)C(C)(C)C)c4)cn3n2)c1C(F)(F)F [Example 422, ethyl 6-(3-(2-(4-methyl-3-pivalamidophenyl)imidazo[1,2-b]pyridazin-6-yl)-2-(trifluoromethyl)phenoxy)hexanoate]		0.312 µM		0.869 µM	
CCOC(=O)CCCCCCOc1cccc(-c2ccc3nc(-c4ccc(C)c(NC(=O)C(C)(C)C)c4)cn3n2)c1C(F)(F)F [Example 423, ethyl 7-(3-(2-(4-methyl-3-pivalamidophenyl)imidazo[1,2-b]pyridazin-6-yl)-2-(trifluoromethyl)phenoxy)heptanoate]		0.265 µM		1.56 µM	
CCOC(=O)CCCCCOc1ccc(C(F)(F)F)c(-c2ccc3nc(-c4ccc(C)c(NC(=O)C(C)(C)C)c4)cn3n2)c1 [Example 424, ethyl 6-(3-(2-(4-methyl-3-pivalamidophenyl)imidazo[1,2-b]pyridazin-6-yl)-4-(trifluoromethyl)phenoxy)hexanoate]		4.1 µM		7.46 µM	
CCOC(=O)CCCCCCOc1ccc(C(F)(F)F)c(-c2ccc3nc(-c4ccc(C)c(NC(=O)C(C)(C)C)c4)cn3n2)c1 [Example 425, ethyl 7-(3-(2-(4-methyl-3-pivalamidophenyl)imidazo[1,2-b]pyridazin-6-yl)-4-(trifluoromethyl)phenoxy)heptanoate]		0.239 µM		0.086 µM	
CCOC(=O)CCCOc1cccc(-c2ccc3nc(-c4ccc(C)c(NC(=O)C(C)(C)C)c4)cn3n2)c1C(F)(F)F [Example 426, ethyl 4-(3-(2-(4-methyl-3-pivalamidophenyl)imidazo[1,2-b]pyridazin-6-yl)-2-(trifluoromethyl)phenoxy)butanoate]		0.707 µM		0.17 µM	
CCOC(=O)CCCCOc1ccc(-c2ccc3nc(-c4ccc(C)c(NC(=O)C(C)(C)C)c4)cn3n2)c(C(F)(F)F)c1 [Example 427, ethyl 5-(4-(2-(4-methyl-3-pivalamidophenyl)imidazo[1,2-b]pyridazin-6-yl)-3-(trifluoromethyl)phenoxy)pentanoate]		0.176 µM		0.027 µM	
CCOC(=O)CCCOc1ccc(-c2ccc3nc(-c4ccc(C)c(NC(=O)C(C)(C)C)c4)cn3n2)c(C(F)(F)F)c1 [Example 428, ethyl 4-(4-(2-(4-methyl-3-pivalamidophenyl)imidazo[1,2-b]pyridazin-6-yl)-3-(trifluoromethyl)phenoxy)butanoate]		0.734 µM		0.078 µM	
Cc1ccc(-c2cn3nc(-c4cccnc4C(F)(F)F)ccc3n2)cc1NC(=O)CCCCCCC(=O)NO [Example 429, N^1-hydroxy-N^8-(2-methyl-5-(6-(2-(trifluoromethyl)pyridin-3-yl)imidazo[1,2-b]pyridazin-2-yl)phenyl)octanediamide]	0.3 to 3 µM	1.28 µM	0.3 to 3 µM	0.167 µM	3 to 30 µM
CCOC(=O)CCCOc1ccc(-c2ccc3nc(-c4ccc(C)c(NC(=O)C(C)(C)C)c4)cn3n2)c(C(F)(F)F)n1 [Example 432, ethyl 4-(5-(2-(4-methyl-3-pivalamidophenyl)imidazo[1,2-b]pyridazin-6-yl)-6-(trifluoromethyl)pyridin-2-yloxy)butanoate]		0.675 µM		0.121 µM	
CCOC(=O)CCCCOc1ccc(C(F)(F)F)c(-c2ccc3nc(-c4ccc(C)c(NC(=O)C(C)(C)C)c4)cn3n2)c1 [Example 433, ethyl 5-(3-(2-(4-methyl-3-pivalamidophenyl)imidazo[1,2-b]pyridazin-6-yl)-4-(trifluoromethyl)phenoxy)pentanoate]		0.736 µM		0.193 µM	
Cc1ccc(-c2cn3nc(-c4cscn4)ccc3n2)cc1NC(=O)C(C)(C)C [Example 445, N-(2-methyl-5-(6-(thiazol-4-yl)imidazo[1,2-b]pyridazin-2-yl)phenyl)pivalamide]		0.578 µM		0.794 µM	
Cc1ccc(-c2cn3nc(-c4ccc5nonc5c4)ccc3n2)cc1NC(=O)C(C)(C)C [Example 449, N-(5-(6-(benzo[c][1,2,5]oxadiazol-5-yl)imidazo[1,2-b]pyridazin-2-yl)-2-methylphenyl)pivalamide]		0.281 µM		0.311 µM	

More lines, now with the values ahead:

IC50 [1, 3]	IC50 [1, 4]	IC50 [2, 5]	IC50 [2, 6]	IC50 [2, 7]	SMILES
< 0.3 µM	0.175 µM	< 0.3 µM	0.105 µM	< 0.3 µM	Cc1ccc(-c2cn3nc(-c4cc(O)ccc4C(F)(F)F)ccc3n2)cc1NC(=O)C(C)(C)C [Example 399, N-(5-(6-(5-hydroxy-2-(trifluoromethyl)phenyl)imidazo[1,2-b]pyridazin-2-yl)-2-methylphenyl)pivalamide]
< 0.3 µM	0.039 µM	< 0.3 µM	0.011 µM	< 0.3 µM	Cc1ccc(-c2cn3nc(-c4ncccc4C(F)(F)F)ccc3n2)cc1NC(=O)C(C)(C)C [Example 400, N-(2-methyl-5-(6-(3-(trifluoromethyl)pyridin-2-yl)imidazo[1,2-b]pyridazin-2-yl)phenyl)pivalamide]
0.3 to 3 µM	0.403 µM	0.3 to 3 µM	0.121 µM	< 0.3 µM	CCOC(=O)COc1cccc(-c2ccc3nc(-c4ccc(C)c(NC(=O)C(C)(C)C)c4)cn3n2)c1C(F)(F)F [Example 410, ethyl 2-(3-(2-(4-methyl-3-pivalamidophenyl)imidazo[1,2-b]pyridazin-6-yl)-2-(trifluoromethyl)phenoxy)acetate]
3 to 30 µM		0.3 to 3 µM	0.38 µM	0.3 to 3 µM	Cc1ccc(-c2cn3nc(-c4ccc(OCCCCCCC(=O)NO)cc4C(F)(F)F)ccc3n2)cc1NC(=O)C(C)(C)C [Example 417, N-hydroxy-7-(4-(2-(4-methyl-3-pivalamidophenyl)imidazo[1,2-b]pyridazin-6-yl)-3-(trifluoromethyl)phenoxy)heptanamide]
< 0.3 µM	0.15 µM	< 0.3 µM	0.071 µM	< 0.3 µM	Cc1ccc(-c2cn3nc(-c4ccc(C(=O)NO)cc4C(F)(F)F)ccc3n2)cc1NC(=O)C(C)(C)C [Example 437, N-hydroxy-4-(2-(4-methyl-3-pivalamidophenyl)imidazo[1,2-b]pyridazin-6-yl)-3-(trifluoromethyl)benzamide]
	2.6 µM		1.16 µM		Cc1ccc(-c2cn3nc(-c4cccc(OCCCCCC(=O)NO)c4C(F)(F)F)ccc3n2)cc1NC(=O)C(C)(C)C [Example 438, N-hydroxy-6-(3-(2-(4-methyl-3-pivalamidophenyl)imidazo[1,2-b]pyridazin-6-yl)-2-(trifluoromethyl)phenoxy)hexanamide]
	0.746 µM		0.365 µM		Cc1ccc(-c2cn3nc(-c4cccc(OCC(=O)NO)c4C(F)(F)F)ccc3n2)cc1NC(=O)C(C)(C)C [Example 439, N-(5-(6-(3-(2-(hydroxyamino)-2-oxoethoxy)-2-(trifluoromethyl)phenyl)imidazo[1,2-b]pyridazin-2-yl)-2-methylphenyl)pivalamide]
	0.604 µM		1.24 µM		Cc1ccc(-c2cn3nc(C4=CCC(C)(C)CC4)ccc3n2)cc1NC(=O)C(C)(C)C [Example 444, N-(5-(6-(4,4-dimethylcyclohex-1-enyl)imidazo[1,2-b]pyridazin-2-yl)-2-methylphenyl)pivalamide]
	0.643 µM		1.28 µM		Cc1ccc(-c2cn3nc(-c4csc(N5CCOCC5)n4)ccc3n2)cc1NC(=O)C(C)(C)C [Example 448, N-(2-methyl-5-(6-(2-morpholinothiazol-4-yl)imidazo[1,2-b]pyridazin-2-yl)phenyl)pivalamide]
